Consider 17 compounds from ChEMBL document CHEMBL4706699, “Novel (R)-6,6a,7,8,9,10-hexahydro-5H-pyrazino[1,2-a][1,n]naphthyridines as potent and selective agonists of the 5-HT receptor” (Bioorg Med Chem Lett, 2021).

In general, EC50 refers to the concentration at which the effect is half-maximal. Low values mean an effect from little substance, high ones a need for much substance. In general, Emax refers to the size of the effect at its maximum, as opposed to the concentration needed. For orientation: Ki means a dissociation constant, usually derived from enzyme kinetics or from competition with a known ligand. One may read the ED50 as the dose at which the effect has come halfway, by size or by number of responders. As usually defined, the bioavailability is the share of a dose that reaches the circulation, judged against a reference dose that is usually intravenous. Broadly, the half-life is the time in which the quantity being followed falls by half. A low value points to fast loss.

The target of data set [1] is T1, 5-hydroxytryptamine receptor 2B (Homo sapiens, UniProt P41595). The data set is described as follows: Agonist activity at 5-HT2BR (unknown origin) transfected in human HEK293 cells by IP3 accumulation assay. The data set is classed as cell-based.
Data set [2] addresses T2, 5-hydroxytryptamine receptor 2A (Homo sapiens, UniProt P28223). Kind of data set: Agonist activity at 5-HT2AR (unknown origin) transfected in human HEK293 cells by IP3 accumulation assay. The data set is classed as cell-based.
In the next data set the target is 5-HT2B receptor (Homo sapiens, UniProt P41595). Kind of data set: Agonist activity at 5-HT2BR (unknown origin) transfected in human HEK293 cells at 10 uM by IP3 accumulation assay relative to control. It counts as cell-based. To be noted: HEK293 cells transfected with 5-HT2BR.
Data set [3] deals with T3, 5-hydroxytryptamine receptor 2C (Homo sapiens) (UniProt P28335).
T3 sequence (whole entry): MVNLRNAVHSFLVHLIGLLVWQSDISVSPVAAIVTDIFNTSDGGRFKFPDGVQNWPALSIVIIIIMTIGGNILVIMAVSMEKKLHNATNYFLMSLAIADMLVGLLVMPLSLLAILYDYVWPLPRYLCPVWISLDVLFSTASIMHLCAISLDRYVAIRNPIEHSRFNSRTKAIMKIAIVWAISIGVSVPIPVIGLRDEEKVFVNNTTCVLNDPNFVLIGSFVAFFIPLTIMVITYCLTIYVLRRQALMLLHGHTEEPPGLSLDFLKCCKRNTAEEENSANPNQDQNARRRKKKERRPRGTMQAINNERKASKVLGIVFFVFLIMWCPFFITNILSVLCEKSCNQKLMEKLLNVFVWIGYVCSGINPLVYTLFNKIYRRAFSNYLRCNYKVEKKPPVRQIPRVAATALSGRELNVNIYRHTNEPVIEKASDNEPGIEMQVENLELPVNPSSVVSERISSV
The data set is described as follows: Agonist activity at 5-HT2CR (unknown origin) transfected in human HEK293 cells at 10 uM by IP3 accumulation assay relative to control. The data set is classed as functional, cell-based. The conditions noted are these: filed as agonist.

Data set [4] deals with T4, 5-hydroxytryptamine receptor 2C (Homo sapiens, UniProt P28335).
T4 sequence (P28335 whole entry): T3 sequence (whole entry)
Kind of data set: Agonist activity at 5-HT2CR (unknown origin) transfected in human HEK293 cells by IP3 accumulation assay. It counts as functional, cell-based.

In data set [5] the target is T2, 5-hydroxytryptamine receptor 2A. The data set is described as follows: Displacement of [3H]-DOI from recombinant human 5HT2AR transfected in human HEK293 cells incubated for 45 mins by radioligand binding assay. It counts as cell-based.
Data set [6] is described as follows: Metabolic stability in human liver microsomes assessed as parent compound remaining at 1 uM incubated for 45 mins. It counts as ADME, Microsome. The conditions noted are these: read-out: Stabilty. A general note: Liver microsomes are vesicles of endoplasmic reticulum, rich in cytochrome P450 enzymes.
The nature of data set [7]: Metabolic stability in rat liver microsomes assessed as parent compound remaining at 1 uM incubated for 45 mins. The data set is classed as ADME, Microsome. The conditions noted are these: read-out: Stabilty.
For another data set, the target named is 5-HT2A receptor (Homo sapiens, UniProt P28223). The data set is described as follows: Agonist activity at 5-HT2AR (unknown origin) transfected in human HEK293 cells at 10 uM by IP3 accumulation assay relative to control. It counts as cell-based. The conditions noted are these: HEK293 cells transfected with 5-HT2AR.
Data set [8] has as its target T1, 5-hydroxytryptamine receptor 2B. The data set is described as follows: Displacement of [3H]-[…] from recombinant human 5HT2BR transfected in human HEK293 cells incubated for 45 mins by radioligand binding assay. The data set is classed as cell-based.
For data set [9], the target named is T4, 5-hydroxytryptamine receptor 2C. The data set is described as follows: Displacement of [125I]-DOI from recombinant human 5HT2CR transfected in human HEK293 cells incubated for 45 mins by radioligand binding assay. It counts as cell-based. For orientation: Displacement assays read how much labelled ligand stays bound in the presence of the test substance.

For a further data set, the system named is Rattus norvegicus. The data set is described as follows: (§1) In vivo agonist activity at 5HT2CR in po dosed Sprague-Dawley rat assessed as reduction in food intake measured at 1 hr. The data set is classed as functional.
Data set [10] can be described thus: as §1. The data set is classed as functional.
The nature of data set [11]: Oral bioavailability in Sprague-Dawley rat. The conditions noted are these: in vivo. The data set is classed as ADME, organism-based.
Data set [12] is described as follows: Ratio of unbound drug level in po dosed Sprague-Dawley rat brain to plasma measured after 2 hrs. The conditions noted are these: read-out: K(p,uu,brain). The data set is classed as ADME, organism-based.
Data set [13] is described as follows: Half life in po dosed Sprague-Dawley rat. The data set is classed as ADME, organism-based. The conditions noted are these: in vivo.

Sequence of 5-HT2B receptor (P41595 whole entry): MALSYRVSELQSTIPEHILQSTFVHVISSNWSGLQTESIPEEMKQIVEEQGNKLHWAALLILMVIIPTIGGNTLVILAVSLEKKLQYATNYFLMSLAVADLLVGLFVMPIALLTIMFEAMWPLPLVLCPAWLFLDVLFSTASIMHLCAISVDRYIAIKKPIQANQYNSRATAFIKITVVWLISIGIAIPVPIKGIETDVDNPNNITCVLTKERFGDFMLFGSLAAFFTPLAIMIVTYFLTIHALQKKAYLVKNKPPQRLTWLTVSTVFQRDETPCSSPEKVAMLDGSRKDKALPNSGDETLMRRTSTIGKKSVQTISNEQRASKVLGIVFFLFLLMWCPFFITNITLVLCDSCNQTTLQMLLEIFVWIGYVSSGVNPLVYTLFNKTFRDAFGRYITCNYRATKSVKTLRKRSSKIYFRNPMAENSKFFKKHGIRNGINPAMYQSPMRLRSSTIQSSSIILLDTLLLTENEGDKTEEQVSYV
T1 sequence (P41595 whole entry): as above
Sequence of 5-HT2A receptor (P28223 whole entry): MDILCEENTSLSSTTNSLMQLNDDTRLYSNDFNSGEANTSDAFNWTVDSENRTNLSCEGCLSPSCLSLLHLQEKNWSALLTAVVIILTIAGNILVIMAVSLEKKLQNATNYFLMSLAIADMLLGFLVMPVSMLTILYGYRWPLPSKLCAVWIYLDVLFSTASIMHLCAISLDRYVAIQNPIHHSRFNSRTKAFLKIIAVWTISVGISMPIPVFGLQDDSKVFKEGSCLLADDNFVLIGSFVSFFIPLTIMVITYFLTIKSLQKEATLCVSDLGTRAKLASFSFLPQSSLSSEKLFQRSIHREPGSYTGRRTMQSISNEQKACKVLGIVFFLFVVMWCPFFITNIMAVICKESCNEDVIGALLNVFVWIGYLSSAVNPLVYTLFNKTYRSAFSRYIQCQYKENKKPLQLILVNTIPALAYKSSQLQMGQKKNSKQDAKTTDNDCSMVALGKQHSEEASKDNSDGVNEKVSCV
T2 sequence (P28223 whole entry): as above

For `c1cnc2c(c1)CC[C@@H]1CNCCN21`, the results for the EC50 in data set [1], in [2] and in data set [4] were 63.1 nM, above 10000 nM and 100 nM, respectively. For the same compound, the Emax at 10 µM at 5-HT2B receptor was 19%. In data set [3], the Emax was determined as 92%.

For the compound `CCCc1cncc2c1CC[C@@H]1CNCCN21`, in data set [5], the Ki is 39.8 nM. For the same compound, the remaining at 0.75 h, 1 µM is 5% in data set [6] and 14% in data set [7]. Moreover, in data set [3], the Emax stood at 106%.

The compound `COCc1ccnc2c1CC[C@@H]1CNCCN21` registered an Emax at 10 µM on 5-HT2B receptor of 38%. The same compound gave an Emax in [3] of 109%.

Regarding `c1cc(C2CC2)c2c(n1)N1CCNC[C@H]1CC2`, the figures for the EC50 in data set [1], in data set [2] and in [4] were 15.8 nM, 398 nM and 6.31 nM, respectively. The values for the Emax at 10 µM on 5-HT2B receptor and on 5-HT2A receptor were 34% and 117%, respectively. The same compound yielded an Emax in [3] of 99%.

For `Clc1ccnc2c1CC[C@@H]1CNCCN21`, the EC50 in [1] was 50.1 nM; in [2], 1260 nM; in data set [4], 5.01 nM. Further, the Emax at 10 µM at 5-HT2B receptor was 62%; at 5-HT2A receptor it was 90%. Further, the Emax in data set [3] was determined as 99%.

Take `CC(C)Cc1ccnc2c1CC[C@@H]1CNCCN21`: the EC50 in data set [1] was 316 nM; in data set [4] it was 0.398 nM. For the same compound, the remaining at 0.75 h, 1 µM was 14% in [6] and 24% in data set [7]. For the same compound, the Emax at 10 µM at 5-HT2B receptor is 22%. In data set [3], this compound had an Emax of 102%. The Ki was 31.6 nM in data set [8] and 0.631 nM in data set [9].

On to `c1ccc(Cc2cncc3c2CC[C@@H]2CNCCN32)cc1`, for which the EC50 in data set [1] was above 10000 nM; in data set [4], 0.631 nM. Moreover, in [3], the Emax amounted to 110%. For the same compound, the Ki in [8] was 251 nM; in [9], 0.501 nM.

As for `c1cc(CC2CCC2)c2c(n1)N1CCNC[C@H]1CC2`, the remaining at 0.75 h, 1 µM in [6] turned out to be 78%; in data set [7] it was 67%. For the same compound, on 5-HT2B receptor, the Emax at 10 µM was 17%. The compound further showed an Emax in data set [3] of 108%.

`Cc1ccnc2c1CC[C@@H]1CNCCN21` returned an Emax at 10 µM on 5-HT2B receptor of 52%. Also, the Emax in data set [3] is 102%.

In the case of `c1ccc(Cc2ccnc3c2CC[C@@H]2CNCCN32)cc1`, the Ki in [5] was 1.26 nM; in data set [9] it was 0.251 nM. Moreover, the EC50 in [2] was 50.1 nM; in data set [4], 0.126 nM. Further, the Emax at 10 µM on 5-HT2B receptor is 25%; at 5-HT2A receptor, 114%. Further, the Emax in data set [3] is 107%.

In the case of `c1cc2c(c(CC3CCC3)n1)CC[C@@H]1CNCCN21`, the figures for the EC50 in data set [1], in data set [2] and in data set [4] were above 10000 nM, above 10000 nM and above 1000 nM, respectively.

Take `c1cc2c(cn1)N1CCNC[C@H]1CC2`: the EC50 in [1] is 794 nM; in data set [2], above 10000 nM; in data set [4], 316 nM. The Emax at 10 µM on 5-HT2B receptor was found to be 28%. In addition, the Emax in [3] is 98%.

In the case of `FC(F)(F)CCc1cccc2c1CC[C@@H]1CNCCN21`, the EC50 in [1] was 3160 nM; in [2], 1000 nM; in data set [4] it was 3.16 nM. Moreover, the values for the Ki in data set [5], in [8] and in [9] were 20 nM, 100 nM and 2 nM, respectively. Besides, the remaining at 0.75 h, 1 µM in [6] is 81%; in data set [7], 23%. Further, the Emax at 10 µM at 5-HT2B receptor was 48%; at 5-HT2A receptor, 114%. This compound also had an Emax in [3] of 95%.

Turning to `c1cc2c(cn1)CC[C@@H]1CNCCN21`, the EC50 in data set [1], in data set [2] and in data set [4] was above 10000 nM throughout.

Regarding `FC(F)(F)CCc1ccnc2c1CC[C@@H]1CNCCN21`, in the data set with Rattus norvegicus, the Activity entry was “Dose-dependent effect”. Further, the ED50 in [10] amounted to 0.7 mg/kg. In addition, the bioavailability in [11] is 54%. Also, the Kp uu at 2 h in data set [12] stood at 1.3. The remaining at 0.75 h, 1 µM in data set [6] amounted to 100%; in data set [7] it was 80%. Also, the results for the Emax at 10 µM on 5-HT2B receptor and on 5-HT2A receptor were 31% and 134%, respectively. In [3], this compound returned an Emax of 97%. Further, the half-life in data set [13] is 2.9 h.

For the compound `CCCc1cccc2c1CC[C@@H]1CNCCN21`, the EC50 in data set [1] was 100 nM; in data set [2] it was 158 nM; in [4], 0.2 nM. Further, the Ki in data set [5] is 5.01 nM; in data set [8], 12.6 nM; in data set [9], 0.316 nM. The results for the remaining at 0.75 h, 1 µM in [6] and in data set [7] were 13% and 38%, respectively. The results for the Emax at 10 µM on 5-HT2B receptor and at 5-HT2A receptor were 82% and 74%, respectively. The compound further showed an Emax in data set [3] of 107%.

Consider `CCCc1ccnc2c1CC[C@@H]1CNCCN21`, for which the Ki in data set [5] was 6.31 nM; in [9] it was 0.158 nM. Besides, the values for the remaining at 0.75 h, 1 µM in data set [6] and in data set [7] were 29% and 27%, respectively. The Emax at 10 µM on 5-HT2B receptor turned out to be 54%. The compound also came in with an Emax in [3] of 99%. Also, the EC50 in data set [4] is 0.0631 nM.
